{
  "source": "paper PMC9159852",
  "about": "“Synthesis, Structure, and Biologic Activity of Some Copper, Nickel, Cobalt, and Zinc Complexes with 2-Formylpyridine N^4-Allylthiosemicarbazone” (Bioinorganic Chemistry and Applications, 2022)",
  "key": {"[1]": {"test_system": "Escherichia coli (ATCC 25922)", "design": "method as in PMID 25708540", "settings": "E. coli (G-), reference drug; cited from earlier work"}, "[2]": {"test_system": "Staphylococcus aureus (ATCC 25923)", "design": "method as in PMID 25708540", "settings": "S. aureus (G+), reference drug; cited from earlier work"}, "[3]": {"test_system": "Candida albicans (ATCC 10231)", "design": "method as in PMID 25708540", "settings": "C. albicans, reference drug; cited from earlier work"}, "[4]": {"design": "method as in doi:10.1134/s1070363221010114", "settings": "standard antioxidant; read-out: IC50 toward ABTS•+ radical cation; cited from earlier work"}},
  "data": [
    {"compound": "C=CCNC(=S)NN=Cc1cccnc1", "values": [
      {"measurement": "melting point", "value": "180 to 182", "unit": "°C"}
    ]},
    {"compound": "C=CCNC(=S)NN=Cc1ccncc1", "values": [
      {"measurement": "melting point", "value": "163 to 165", "unit": "°C"}
    ]},
    {"compound": "NC(=O)N/N=C/c1ccc([N+](=O)[O-])o1", "note": "[Furacillinum, furacillinum]", "values": [
      {"measurement": "MBC", "setting": "[1]", "value": 37.5, "unit": "µg/mL"},
      {"measurement": "MIC", "setting": "[1]", "value": 18.5, "unit": "µg/mL"},
      {"measurement": "MBC", "setting": "[2]", "value": 9.3, "unit": "µg/mL"},
      {"measurement": "MIC", "setting": "[2]", "value": 9.3, "unit": "µg/mL"}
    ]},
    {"compound": "C[C@@H]1[C@H](O)[C@@H](C)/C=C/C=C/CC/C=C/C=C/C=C/C=C/C(O[C@H]2O[C@H](C)[C@@H](O)[C@H](N)[C@@H]2O)CC2O[C@](O)(CC(O)C(O)CCC(O)CC(O)CC(O)CC(=O)O[C@H]1C)CC(O)C2C(=O)O", "note": "(stereo partly drawn) [Nystatin, nystatin]", "values": [
      {"measurement": "MFC", "setting": "[3]", "value": 80, "unit": "µg/mL"},
      {"measurement": "MIC", "setting": "[3]", "value": 80, "unit": "µg/mL"}
    ]},
    {"compound": "Cc1c(C)c2c(c(C)c1O)CCC(C)(C(=O)O)O2", "note": "(stereo not drawn) [Trolox, trolox]", "values": [
      {"measurement": "IC50", "setting": "[4]", "value": "33 ± 0.7", "unit": "µM"}
    ]}
  ]
}
